Results from ChEMBL document CHEMBL2311459, “Naphthyridinone (NTD) integrase inhibitors: N1 protio and methyl combination substituent effects with C3 amide groups” (Bioorg Med Chem Lett, 2013).

Key:
[1] = target: Human immunodeficiency virus type 1 integrase (Human immunodeficiency virus 1, UniProt Q7ZJM1); test: Inhibition of HIV1 integrase strand transfer activity
[2] = test system: Human immunodeficiency virus; test: Antiviral activity against HIV in presence of 40 mg/mL of purified human serum albumin; format: functional, organism-based; settings: Human immunodeficiency virus 1
[3] = test system: Human immunodeficiency virus; test: Antiviral activity against HIV; format: functional, organism-based; settings: Human immunodeficiency virus 1
[4] = Therapeutic index, ratio of cytotoxicity against human MT4 cells to antiviral activity against HIV; format: cell-based; settings: read-out: TI
[5] = test system: Human immunodeficiency virus; test: Antiviral activity against HIV infected in human MT4 cells; format: functional, organism-based; settings: Human immunodeficiency virus 1, MT4
[6] = AUC in CD rat at 5 mg/kg, po; format: ADME, organism-based; set-up: dose 5 mg/kg, route oral; settings: plasma
[7] = Ratio of plasma concentration in CD rat at 1 mg/kg, iv and 5 mg/kg, po after 24 hrs to IC50 for HIV in presence of 40 mg/mL of purified human serum albumin; format: ADME, organism-based; settings: in vivo
[8] = AUC in dog at 5 mg/kg, po; format: ADME, organism-based, Canis lupus familiaris; set-up: dose 5 mg/kg, route oral; settings: plasma
[9] = Ratio of plasma concentration in dog at 1 mg/kg, iv and 5 mg/kg, po after 24 hrs to IC50 for HIV in presence of 40 mg/mL of purified human serum albumin; format: ADME, organism-based; settings: in vivo
[10] = Half life in CD rat at 1 mg/kg, iv and 5 mg/kg, po; format: ADME, organism-based; settings: in vivo
[11] = Plasma clearance in dog at 1 mg/kg, iv and 5 mg/kg, po; format: ADME, organism-based, Canis lupus familiaris
[12] = Ratio of plasma concentration in cynomolgus monkey at 1 mg/kg, iv and 5 mg/kg, po after 24 hrs to IC50 for HIV in presence of 40 mg/mL of purified human serum albumin; format: ADME, organism-based; settings: in vivo
[13] = Plasma clearance in cynomolgus monkey at 1 mg/kg, iv and 5 mg/kg, po; format: ADME, organism-based, Macaca fascicularis
[14] = Half life in cynomolgus monkey at 1 mg/kg, iv and 5 mg/kg, po; format: ADME, organism-based, Macaca fascicularis; settings: in vivo
[15] = Half life in dog at 1 mg/kg, iv and 5 mg/kg, po; format: ADME, organism-based, Canis lupus familiaris; settings: in vivo
[16] = AUC (0 to 24 hrs) in cynomolgus monkey at 5 mg/kg, po; format: ADME, organism-based, Macaca fascicularis; set-up: time < 24 hr, dose 5 mg/kg, route oral; settings: plasma

Chain of Human immunodeficiency virus type 1 integrase (Q7ZJM1 whole entry): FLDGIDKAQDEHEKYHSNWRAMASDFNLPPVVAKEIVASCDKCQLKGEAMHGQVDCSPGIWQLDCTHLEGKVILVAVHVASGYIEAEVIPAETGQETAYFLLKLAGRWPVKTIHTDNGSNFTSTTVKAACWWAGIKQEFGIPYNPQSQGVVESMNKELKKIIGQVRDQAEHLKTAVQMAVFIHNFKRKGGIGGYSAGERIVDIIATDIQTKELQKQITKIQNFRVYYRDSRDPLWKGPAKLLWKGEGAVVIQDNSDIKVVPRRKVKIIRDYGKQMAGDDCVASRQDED

SMILES	IC50 [1] [nM]	IC50 [2] [nM]	IC50 [3] [nM]	further results
C[C@H](O)CNC(=O)c1c(O)c2ncc(Cc3ccc(F)cc3)cc2[nH]c1=O	3	78	7	
Cn1c(=O)c(C(=O)NCCCN2CCCC2=O)c(O)c2ncc(Cc3ccc(F)cc3)cc21	16	15	2	
Cn1c(=O)c(C(=O)NCCN2CCOCC2)c(O)c2ncc(Cc3ccc(F)cc3)cc21	13	23	4	selectivity ratio [4]: 165; IC50 [5]: 64 nM
Cn1c(=O)c(C(=O)NCCN2CCNC2=O)c(O)c2ncc(Cc3ccc(F)cc3)cc21	5	9	2	AUC [6]: 3550 ng·h/mL; Ratio [7]: 0; selectivity ratio [4]: 1620; IC50 [5]: 11 nM
CC(=O)NCCNC(=O)c1c(O)c2ncc(Cc3ccc(F)cc3)cc2n(C)c1=O	5	12	2	selectivity ratio [4]: 807; IC50 [5]: 22 nM
CN(CCNC(=O)c1c(O)c2ncc(Cc3ccc(F)cc3)cc2n(C)c1=O)S(C)(=O)=O	5	7	1	AUC [6]: 5810 ng·h/mL; Ratio [7]: 1.7; selectivity ratio [4]: > 7200; IC50 [5]: 7 nM
CN(CCNC(=O)c1c(O)c2ncc(Cc3ccc(F)cc3)cc2[nH]c1=O)S(C)(=O)=O	4	49	9	
O=C(NC1CCS(=O)(=O)CC1)c1c(O)c2ncc(Cc3ccc(F)cc3)cc2[nH]c1=O	9	170	48	
CSCCNC(=O)c1c(O)c2ncc(Cc3ccc(F)cc3)cc2[nH]c1=O	5	256	5	
C[C@H](CO)NC(=O)c1c(O)c2ncc(Cc3ccc(F)cc3)cc2[nH]c1=O	5	33	7	AUC [6]: 6370 ng·h/mL; Ratio [7]: 0; selectivity ratio [4]: > 400; IC50 [5]: 20 nM
C[C@@H](CO)NC(=O)c1c(O)c2ncc(Cc3ccc(F)cc3)cc2[nH]c1=O	4	19	6	
CC(C)(CO)NC(=O)c1c(O)c2ncc(Cc3ccc(F)cc3)cc2[nH]c1=O	3	19	2	
C[C@@H](O)CNC(=O)c1c(O)c2ncc(Cc3ccc(F)cc3)cc2[nH]c1=O	6	282	7	
CC(C)(CO)CNC(=O)c1c(O)c2ncc(Cc3ccc(F)cc3)cc2[nH]c1=O	4	41	4	
Cn1c(=O)c(C(=O)NCC(F)F)c(O)c2ncc(Cc3ccc(F)cc3)cc21	5	2900	1	
Cn1c(=O)c(C(=O)NCCCO)c(O)c2ncc(Cc3ccc(F)cc3)cc21	5	40	1	
C[C@H](CO)NC(=O)c1c(O)c2ncc(Cc3ccc(F)cc3)cc2n(C)c1=O	8	11	2	selectivity ratio [4]: > 12500; IC50 [5]: 4 nM
C[C@@H](CO)NC(=O)c1c(O)c2ncc(Cc3ccc(F)cc3)cc2n(C)c1=O	4	15	1	AUC [8]: 1120 ng·h/mL; AUC [6]: 22600 ng·h/mL; Ratio [7]: 2.7; Ratio [9]: 0
Cn1c(=O)c(C(=O)NC(C)(C)CO)c(O)c2ncc(Cc3ccc(F)cc3)cc21	6	28	3	
Cn1c(=O)c(C(=O)NC2(CO)CCCC2)c(O)c2ncc(Cc3ccc(F)cc3)cc21	7	180	3	

SMILES	IC50 [1] [nM]	IC50 [2] [nM]	IC50 [3] [nM]	further results
C[C@H](O)CNC(=O)c1c(O)c2ncc(Cc3ccc(F)cc3)cc2n(C)c1=O	2	110	2	
C[C@H](CO)CNC(=O)c1c(O)c2ncc(Cc3ccc(F)cc3)cc2n(C)c1=O	4	18	3	
Cn1c(=O)c(C(=O)NCCCN2CCCC2)c(O)c2ncc(Cc3ccc(F)cc3)cc21	6	34	9	
CC(C)CCNC(=O)c1c(O)c2ncc(Cc3ccc(F)cc3)cc2[nH]c1=O	5	230	8	
CCOCCNC(=O)c1c(O)c2ncc(Cc3ccc(F)cc3)cc2[nH]c1=O	9	65	4	
CC(C)OCCCNC(=O)c1c(O)c2ncc(Cc3ccc(F)cc3)cc2[nH]c1=O	9	190	8	
O=C(NCCO)c1c(O)c2ncc(Cc3ccc(F)cc3)cc2[nH]c1=O	5	51	6	AUC [6]: 3060 ng·h/mL; Ratio [7]: 0.8; selectivity ratio [4]: > 250; IC50 [5]: 80 nM
O=C(NCCCO)c1c(O)c2ncc(Cc3ccc(F)cc3)cc2[nH]c1=O	11	41	4	
O=C(NCCN1CCCCC1)c1c(O)c2ncc(Cc3ccc(F)cc3)cc2[nH]c1=O	14	172	38	
O=C(NCCCN1CCCC1)c1c(O)c2ncc(Cc3ccc(F)cc3)cc2[nH]c1=O	23	109	39	
O=C(NCCCN1CCCC1=O)c1c(O)c2ncc(Cc3ccc(F)cc3)cc2[nH]c1=O	4	31	5	
O=C(NCCN1CCOCC1)c1c(O)c2ncc(Cc3ccc(F)cc3)cc2[nH]c1=O	7	42	6	selectivity ratio [4]: > 250; IC50 [5]: 32 nM
O=C(NCCCN1CCOCC1)c1c(O)c2ncc(Cc3ccc(F)cc3)cc2[nH]c1=O	8	37	6	
CN1CCN(CCCNC(=O)c2c(O)c3ncc(Cc4ccc(F)cc4)cc3[nH]c2=O)CC1	11	110	28	
CCNC(=O)c1c(O)c2ncc(Cc3ccc(F)cc3)cc2n(C)c1=O	4	650	2	
COCCNC(=O)c1c(O)c2ncc(Cc3ccc(F)cc3)cc2n(C)c1=O	4	48		AUC [8]: 1240 ng·h/mL; AUC [6]: 1850 ng·h/mL; Ratio [7]: 0.1; Ratio [9]: 0; half-life [10]: 4 h
NC(=O)c1c(O)c2ncc(Cc3ccc(F)cc3)cc2[nH]c1=O	45			
COCCNC(=O)c1c(O)c2ncc(Cc3ccc(F)cc3)cc2[nH]c1=O	5	35	5	AUC [6]: 1650 ng·h/mL; Ratio [7]: 0.1
CNC(=O)c1c(O)c2ncc(Cc3ccc(F)cc3)cc2[nH]c1=O	6		3	
CNC(=O)c1c(O)c2ncc(Cc3ccc(F)cc3)cc2n(C)c1=O	4	55	1	clearance [11]: 8.6 mL/min/kg; Ratio [12]: 9.2; AUC [8]: 13200 ng·h/mL; clearance [13]: 2 mL/min/kg; half-life [14]: 3.9 h; Ratio [9]: 0.8; half-life [15]: 1.6 h; AUC(0-t) at 24 h [16]: 38600 ng·h/mL
